Measured values published in the kinase profiling compilation of Christmann-Franck et al. (2016).
One block for each compound: values may come before it.

What was measured:
Assay in all cases: KINOMEscan competition binding
Settings in all cases: compound 10.0 µM
[1] = molecular target: CDC42BPB (human) (UniProt Q9Y5S2)
[2] = molecular target: WEE2 (human) (UniProt P0C1S8)
[3] = molecular target: PAK6 (human) (UniProt Q9NQU5)
[4] = molecular target: MAP3K5 (human) (UniProt Q99683)
[5] = molecular target: IGF1R (human) (UniProt P08069)
[6] = molecular target: ITK (human) (UniProt Q08881)
ITK (human), sequence (Q08881 whole entry, looked up): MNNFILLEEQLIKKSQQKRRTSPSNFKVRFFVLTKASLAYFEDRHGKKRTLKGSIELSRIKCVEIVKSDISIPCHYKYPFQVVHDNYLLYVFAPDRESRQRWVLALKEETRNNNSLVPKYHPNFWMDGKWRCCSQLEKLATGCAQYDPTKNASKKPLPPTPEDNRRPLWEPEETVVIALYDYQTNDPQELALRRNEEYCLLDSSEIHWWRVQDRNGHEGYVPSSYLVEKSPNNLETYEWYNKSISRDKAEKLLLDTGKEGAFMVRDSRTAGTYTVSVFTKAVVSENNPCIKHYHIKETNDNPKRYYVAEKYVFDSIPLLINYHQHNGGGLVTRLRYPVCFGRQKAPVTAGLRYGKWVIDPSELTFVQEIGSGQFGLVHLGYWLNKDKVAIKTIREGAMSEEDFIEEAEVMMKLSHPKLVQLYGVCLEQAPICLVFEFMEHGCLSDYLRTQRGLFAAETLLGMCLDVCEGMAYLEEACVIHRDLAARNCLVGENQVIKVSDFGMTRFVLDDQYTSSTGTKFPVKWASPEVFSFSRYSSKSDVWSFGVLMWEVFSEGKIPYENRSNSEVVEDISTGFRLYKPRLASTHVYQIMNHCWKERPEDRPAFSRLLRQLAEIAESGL

[7] = molecular target: SIK3 (human) (UniProt Q9Y2K2)
[8] = molecular target: AURKC (human) (UniProt Q9UQB9)
AURKC (human), sequence (Q9UQB9 whole entry, looked up): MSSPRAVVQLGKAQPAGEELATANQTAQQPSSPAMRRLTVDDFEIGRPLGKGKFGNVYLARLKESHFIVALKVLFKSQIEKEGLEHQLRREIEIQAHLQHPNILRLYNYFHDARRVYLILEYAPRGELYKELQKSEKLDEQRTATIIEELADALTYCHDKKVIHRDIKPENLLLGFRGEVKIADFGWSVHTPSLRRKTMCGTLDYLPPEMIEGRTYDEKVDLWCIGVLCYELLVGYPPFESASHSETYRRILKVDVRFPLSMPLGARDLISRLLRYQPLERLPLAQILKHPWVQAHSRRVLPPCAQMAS

[9] = molecular target: BRAF (human) (UniProt P15056)
[10] = molecular target: LTK (human) (UniProt P29376)
[11] = molecular target: STK17A (human) (UniProt Q9UEE5)
[12] = test system: FLT3 (human), P36888 [D835H]
[13] = molecular target: ICK (human) (UniProt Q9UPZ9)
[14] = molecular target: NIM1 (human) (UniProt Q8IY84)
[15] = molecular target: STK35 (human) (UniProt Q8TDR2)
[16] = molecular target: DDR2 (human) (UniProt Q16832)
[17] = test system: KIT (human), P10721 [D816V]
[18] = molecular target: RIPK2 (human) (UniProt O43353)
[19] = molecular target: ADCK3 (human) (UniProt Q8NI60)
[20] = molecular target: NEK5 (human) (UniProt Q6P3R8)
[21] = molecular target: BTK (human) (UniProt Q06187)
[22] = molecular target: IKBKB (human) (UniProt O14920)
[23] = molecular target: MAP3K13 (human) (UniProt O43283)
[24] = molecular target: MAST1 (human) (UniProt Q9Y2H9)
[25] = molecular target: ULK3 (human) (UniProt Q6PHR2)
[26] = molecular target: TYK2 JH1 catalytic (human) (UniProt P29597)
[27] = molecular target: CLK2 (human) (UniProt P49760)
[28] = molecular target: PRKG1 (human) (UniProt Q13976)
[29] = molecular target: CSNK1G3 (human) (UniProt Q9Y6M4)
[30] = molecular target: RIOK1 (human) (UniProt Q9BRS2)
RIOK1 (human), sequence (Q9BRS2 whole entry, looked up): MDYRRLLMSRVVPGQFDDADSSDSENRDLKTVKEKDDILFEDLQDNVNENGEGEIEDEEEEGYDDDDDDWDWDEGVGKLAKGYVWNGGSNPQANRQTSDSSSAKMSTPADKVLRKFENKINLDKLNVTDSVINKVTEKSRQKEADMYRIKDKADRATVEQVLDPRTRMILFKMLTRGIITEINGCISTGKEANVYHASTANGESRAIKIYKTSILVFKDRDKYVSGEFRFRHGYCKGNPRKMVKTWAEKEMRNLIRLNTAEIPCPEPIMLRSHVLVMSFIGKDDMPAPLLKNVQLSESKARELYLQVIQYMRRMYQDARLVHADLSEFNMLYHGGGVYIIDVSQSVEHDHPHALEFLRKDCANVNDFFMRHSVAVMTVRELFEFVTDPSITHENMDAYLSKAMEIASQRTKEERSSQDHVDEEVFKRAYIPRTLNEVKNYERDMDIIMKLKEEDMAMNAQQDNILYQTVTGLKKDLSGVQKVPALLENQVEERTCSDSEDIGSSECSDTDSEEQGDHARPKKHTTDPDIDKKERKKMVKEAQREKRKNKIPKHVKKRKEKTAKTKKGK

[31] = molecular target: STK3 (human) (UniProt Q13188)
[32] = molecular target: CDK2 (human) (UniProt P24941)
[33] = molecular target: YSK4 (human) (UniProt Q56UN5)
[34] = molecular target: CIT (human) (UniProt O14578)
CIT (human), sequence (O14578 whole entry, looked up): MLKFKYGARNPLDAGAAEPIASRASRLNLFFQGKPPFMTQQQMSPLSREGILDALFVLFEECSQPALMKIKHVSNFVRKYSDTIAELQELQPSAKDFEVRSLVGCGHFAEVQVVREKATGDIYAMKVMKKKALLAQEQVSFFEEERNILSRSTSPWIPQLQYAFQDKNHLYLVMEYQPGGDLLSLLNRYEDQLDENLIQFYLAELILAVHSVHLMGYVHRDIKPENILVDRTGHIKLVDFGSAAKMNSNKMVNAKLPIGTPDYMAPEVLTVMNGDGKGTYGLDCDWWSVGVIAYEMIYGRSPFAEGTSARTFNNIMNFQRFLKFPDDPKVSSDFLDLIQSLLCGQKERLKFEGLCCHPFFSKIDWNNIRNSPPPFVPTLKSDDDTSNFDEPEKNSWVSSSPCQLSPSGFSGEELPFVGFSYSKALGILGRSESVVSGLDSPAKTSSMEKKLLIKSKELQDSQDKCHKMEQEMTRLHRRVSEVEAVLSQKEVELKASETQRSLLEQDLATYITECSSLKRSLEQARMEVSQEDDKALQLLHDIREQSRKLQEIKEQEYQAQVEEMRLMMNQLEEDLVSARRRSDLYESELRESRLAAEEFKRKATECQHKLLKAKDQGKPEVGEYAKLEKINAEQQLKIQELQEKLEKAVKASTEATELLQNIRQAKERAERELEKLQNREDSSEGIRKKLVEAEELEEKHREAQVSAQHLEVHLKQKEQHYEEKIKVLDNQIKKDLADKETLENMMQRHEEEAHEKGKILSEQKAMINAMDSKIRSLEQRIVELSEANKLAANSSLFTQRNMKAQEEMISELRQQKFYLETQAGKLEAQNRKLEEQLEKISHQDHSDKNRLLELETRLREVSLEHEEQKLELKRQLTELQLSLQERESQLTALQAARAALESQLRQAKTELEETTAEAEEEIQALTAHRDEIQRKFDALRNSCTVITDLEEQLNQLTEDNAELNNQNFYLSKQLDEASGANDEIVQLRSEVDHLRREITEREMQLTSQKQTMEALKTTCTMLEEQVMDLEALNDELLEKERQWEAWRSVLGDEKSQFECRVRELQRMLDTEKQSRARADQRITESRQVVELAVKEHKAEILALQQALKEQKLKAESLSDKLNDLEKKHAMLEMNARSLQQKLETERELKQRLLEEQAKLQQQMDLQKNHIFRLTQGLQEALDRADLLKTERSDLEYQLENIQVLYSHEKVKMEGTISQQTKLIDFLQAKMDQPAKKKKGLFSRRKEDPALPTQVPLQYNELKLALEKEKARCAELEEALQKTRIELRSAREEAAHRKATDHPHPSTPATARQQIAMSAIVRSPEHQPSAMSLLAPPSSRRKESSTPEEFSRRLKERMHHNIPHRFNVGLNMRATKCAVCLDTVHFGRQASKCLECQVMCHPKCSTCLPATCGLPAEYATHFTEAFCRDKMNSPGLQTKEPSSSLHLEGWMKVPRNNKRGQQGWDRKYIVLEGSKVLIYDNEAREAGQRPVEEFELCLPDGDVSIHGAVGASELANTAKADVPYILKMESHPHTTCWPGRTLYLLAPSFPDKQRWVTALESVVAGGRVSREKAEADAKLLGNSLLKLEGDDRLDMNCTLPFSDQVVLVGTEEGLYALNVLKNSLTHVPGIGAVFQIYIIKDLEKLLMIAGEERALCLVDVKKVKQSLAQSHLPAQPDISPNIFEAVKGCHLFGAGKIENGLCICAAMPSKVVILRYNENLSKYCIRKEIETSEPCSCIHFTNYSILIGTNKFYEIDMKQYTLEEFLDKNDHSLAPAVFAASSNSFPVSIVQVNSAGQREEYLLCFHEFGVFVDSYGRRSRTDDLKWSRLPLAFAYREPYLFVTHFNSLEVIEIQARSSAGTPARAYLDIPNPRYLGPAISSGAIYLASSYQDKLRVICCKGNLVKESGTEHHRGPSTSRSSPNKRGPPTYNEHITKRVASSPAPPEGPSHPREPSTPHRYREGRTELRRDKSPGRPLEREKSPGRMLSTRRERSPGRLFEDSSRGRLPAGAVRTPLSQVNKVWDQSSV

[35] = molecular target: MAP3K4 (human) (UniProt Q9Y6R4)
[36] = molecular target: JAK1 JH2 pseudokinase (human) (UniProt P23458)
[37] = molecular target: GAK (human) (UniProt O14976)
GAK (human), sequence (O14976 whole entry, looked up): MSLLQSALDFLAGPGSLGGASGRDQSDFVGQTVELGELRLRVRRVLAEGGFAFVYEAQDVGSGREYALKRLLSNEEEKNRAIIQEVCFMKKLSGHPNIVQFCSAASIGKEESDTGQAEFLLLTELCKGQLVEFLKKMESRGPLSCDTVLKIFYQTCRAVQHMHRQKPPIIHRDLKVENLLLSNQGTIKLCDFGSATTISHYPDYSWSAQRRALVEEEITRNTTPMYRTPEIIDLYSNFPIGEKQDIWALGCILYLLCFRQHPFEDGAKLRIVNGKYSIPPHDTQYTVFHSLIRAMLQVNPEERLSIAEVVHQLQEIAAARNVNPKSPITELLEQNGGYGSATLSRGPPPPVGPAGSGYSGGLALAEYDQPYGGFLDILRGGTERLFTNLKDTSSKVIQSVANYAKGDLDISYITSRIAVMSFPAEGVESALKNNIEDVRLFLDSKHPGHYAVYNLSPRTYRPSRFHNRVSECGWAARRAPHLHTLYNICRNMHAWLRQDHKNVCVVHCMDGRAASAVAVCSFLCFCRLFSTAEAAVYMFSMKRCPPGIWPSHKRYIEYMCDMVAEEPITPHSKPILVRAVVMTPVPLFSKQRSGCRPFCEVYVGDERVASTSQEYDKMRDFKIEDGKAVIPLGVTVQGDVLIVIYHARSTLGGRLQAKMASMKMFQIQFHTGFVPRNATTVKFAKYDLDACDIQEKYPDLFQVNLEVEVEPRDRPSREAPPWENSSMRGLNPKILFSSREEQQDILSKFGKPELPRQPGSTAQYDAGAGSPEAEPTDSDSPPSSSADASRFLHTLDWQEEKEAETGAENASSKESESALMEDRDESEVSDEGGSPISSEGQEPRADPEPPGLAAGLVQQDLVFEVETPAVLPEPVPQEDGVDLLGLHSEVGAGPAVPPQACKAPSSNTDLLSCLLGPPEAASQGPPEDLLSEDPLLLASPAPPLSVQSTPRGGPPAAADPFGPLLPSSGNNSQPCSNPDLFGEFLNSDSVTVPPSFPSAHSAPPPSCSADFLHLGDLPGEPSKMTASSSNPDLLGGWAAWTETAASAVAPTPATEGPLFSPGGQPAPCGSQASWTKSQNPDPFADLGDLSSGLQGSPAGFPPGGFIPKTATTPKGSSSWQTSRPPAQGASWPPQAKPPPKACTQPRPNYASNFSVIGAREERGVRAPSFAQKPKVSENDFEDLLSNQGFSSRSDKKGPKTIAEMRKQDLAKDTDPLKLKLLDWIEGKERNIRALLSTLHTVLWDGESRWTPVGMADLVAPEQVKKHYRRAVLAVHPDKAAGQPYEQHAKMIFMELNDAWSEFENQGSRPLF

[38] = molecular target: CDKL5 (human) (UniProt O76039)
[39] = molecular target: TESK1 (human) (UniProt Q15569)
[40] = test system: FLT3 (human), P36888 [N841I]
[41] = molecular target: STK38 (human) (UniProt Q15208)
[42] = molecular target: MYLK (human) (UniProt Q15746)

- kinase still bound, per cent of control [1]: 90%
- kinase still bound, per cent of control [2]: 100%
- kinase still bound, per cent of control [3]: 24%
- kinase still bound, per cent of control [4]: 100%
- kinase still bound, per cent of control [5]: 83%
- kinase still bound, per cent of control [6]: 11%
- kinase still bound, per cent of control [7]: 24%
- kinase still bound, per cent of control [8]: 0.75%
- kinase still bound, per cent of control [9]: 89%
- kinase still bound, per cent of control [10]: 100%
- kinase still bound, per cent of control [11]: 0%
- kinase still bound, per cent of control [12]: 1.8%
- kinase still bound, per cent of control [13]: 0.1%
- kinase still bound, per cent of control [14]: 85%
- kinase still bound, per cent of control [15]: 60%
- kinase still bound, per cent of control [16]: 23%
- kinase still bound, per cent of control [17]: 2.3%
- kinase still bound, per cent of control [18]: 69%
- kinase still bound, per cent of control [19]: 80%
- kinase still bound, per cent of control [20]: 80%
- kinase still bound, per cent of control [21]: 38%
- kinase still bound, per cent of control [22]: 78%
- kinase still bound, per cent of control [23]: 54%
- kinase still bound, per cent of control [24]: 2.8%
- kinase still bound, per cent of control [25]: 1.3%
- kinase still bound, per cent of control [26]: 3%
- kinase still bound, per cent of control [27]: 8.2%
- kinase still bound, per cent of control [28]: 100%
- kinase still bound, per cent of control [29]: 81%
- kinase still bound, per cent of control [30]: 5.1%
- kinase still bound, per cent of control [31]: 0%
- kinase still bound, per cent of control [32]: 14%
- kinase still bound, per cent of control [33]: 3.8%
- kinase still bound, per cent of control [34]: 29%
- kinase still bound, per cent of control [35]: 85%
- kinase still bound, per cent of control [36]: 48%
- kinase still bound, per cent of control [37]: 2.1%
- kinase still bound, per cent of control [38]: 7.4%
- kinase still bound, per cent of control [39]: 67%
- kinase still bound, per cent of control [40]: 0%
- kinase still bound, per cent of control [41]: 86%
- kinase still bound, per cent of control [42]: 6.5%
SMILES: O=C1Nc2cc(Br)ccc2/C1=C1/Nc2ccccc2/C1=N\O

- kinase still bound, per cent of control [1]: 75%
- kinase still bound, per cent of control [2]: 100%
- kinase still bound, per cent of control [3]: 100%
- kinase still bound, per cent of control [4]: 71%
- kinase still bound, per cent of control [5]: 100%
- kinase still bound, per cent of control [6]: 95%
- kinase still bound, per cent of control [7]: 77%
- kinase still bound, per cent of control [8]: 92%
- kinase still bound, per cent of control [9]: 57%
- kinase still bound, per cent of control [10]: 100%
- kinase still bound, per cent of control [11]: 80%
- kinase still bound, per cent of control [12]: 99%
- kinase still bound, per cent of control [13]: 87%
- kinase still bound, per cent of control [14]: 100%
- kinase still bound, per cent of control [15]: 87%
- kinase still bound, per cent of control [16]: 71%
- kinase still bound, per cent of control [17]: 100%
- kinase still bound, per cent of control [18]: 95%
- kinase still bound, per cent of control [19]: 100%
- kinase still bound, per cent of control [20]: 100%
- kinase still bound, per cent of control [21]: 100%
- kinase still bound, per cent of control [22]: 100%
- kinase still bound, per cent of control [23]: 70%
- kinase still bound, per cent of control [24]: 98%
- kinase still bound, per cent of control [25]: 95%
- kinase still bound, per cent of control [26]: 100%
- kinase still bound, per cent of control [27]: 73%
- kinase still bound, per cent of control [28]: 97%
- kinase still bound, per cent of control [29]: 59%
- kinase still bound, per cent of control [30]: 100%
- kinase still bound, per cent of control [31]: 3.4%
- kinase still bound, per cent of control [32]: 74%
- kinase still bound, per cent of control [33]: 49%
- kinase still bound, per cent of control [34]: 89%
- kinase still bound, per cent of control [35]: 100%
- kinase still bound, per cent of control [36]: 89%
- kinase still bound, per cent of control [37]: 98%
- kinase still bound, per cent of control [38]: 100%
- kinase still bound, per cent of control [39]: 100%
- kinase still bound, per cent of control [40]: 89%
- kinase still bound, per cent of control [41]: 100%
- kinase still bound, per cent of control [42]: 100%
SMILES: COc1ccc(CNC(=O)Nc2ncc([N+](=O)[O-])s2)cc1

- kinase still bound, per cent of control [1]: 97%
- kinase still bound, per cent of control [2]: 100%
- kinase still bound, per cent of control [3]: 86%
- kinase still bound, per cent of control [4]: 100%
- kinase still bound, per cent of control [5]: 95%
- kinase still bound, per cent of control [6]: 100%
- kinase still bound, per cent of control [7]: 86%
- kinase still bound, per cent of control [8]: 96%
- kinase still bound, per cent of control [9]: 80%
- kinase still bound, per cent of control [10]: 100%
- kinase still bound, per cent of control [11]: 16%
- kinase still bound, per cent of control [12]: 32%
- kinase still bound, per cent of control [13]: 12%
- kinase still bound, per cent of control [14]: 100%
- kinase still bound, per cent of control [15]: 94%
- kinase still bound, per cent of control [16]: 84%
- kinase still bound, per cent of control [17]: 89%
- kinase still bound, per cent of control [18]: 94%
- kinase still bound, per cent of control [19]: 100%
- kinase still bound, per cent of control [20]: 99%
- kinase still bound, per cent of control [21]: 100%
- kinase still bound, per cent of control [22]: 83%
- kinase still bound, per cent of control [23]: 84%
- kinase still bound, per cent of control [24]: 82%
- kinase still bound, per cent of control [25]: 100%
- kinase still bound, per cent of control [26]: 100%
- kinase still bound, per cent of control [27]: 0.45%
- kinase still bound, per cent of control [28]: 61%
- kinase still bound, per cent of control [29]: 69%
- kinase still bound, per cent of control [30]: 79%
- kinase still bound, per cent of control [31]: 9.9%
- kinase still bound, per cent of control [32]: 7.4%
- kinase still bound, per cent of control [33]: 12%
- kinase still bound, per cent of control [34]: 85%
- kinase still bound, per cent of control [35]: 98%
- kinase still bound, per cent of control [36]: 82%
- kinase still bound, per cent of control [37]: 74%
- kinase still bound, per cent of control [38]: 100%
- kinase still bound, per cent of control [39]: 100%
- kinase still bound, per cent of control [40]: 47%
- kinase still bound, per cent of control [41]: 100%
- kinase still bound, per cent of control [42]: 64%
SMILES: Cn1cc(C2=C(c3ccc(Cl)cc3Cl)C(=O)NC2=O)c2ccccc21
